In patent US7049080B2, “Process for detecting serine/threonine kinase activity” (priority 2000, dated 2006):
Non-standard residues stand in square brackets, D forms with d. No end group written: not given here. *: point of attachment. 5‑TAMRA = CN(C)c1ccc2c(-c3ccc(C(=O)*)cc3C(=O)[O-])c3ccc(N(C)C)cc3[o+]c2c1; pY = N[C@@H](Cc1ccc(OP(=O)(O)O)cc1)C(=O)O; pT = C[C@@H](OP(=O)(O)O)[C@H](N)C(=O)O; AEEA = NCCOCCOCC(=O)O

How the values were obtained:
[1] = biological target: polyclonal phospho-JNK antibody NEB #9251; assay: Binding of polyclonal phospho-JNK antibody to TAMRA-labelled peptides (fluorescence polarization); design: species or system rabbit
From the text: The polarization values dramatically increase when using the double-phosphorylated peptide substrate P1*^∘ in contrast to mono-phosphorylated labelled peptide P1^∘ (sequence see above).
Measurement of the Binding Affinity (KD) of Antibody NEB #9251:
This polyclonal antibody detects all three isoforms of the SAPK1/JNK proteins only when they are activated by dual phosphorylation at threonine183/tyrosine185. Binding of poly-clonal phospho-JNK antibody (at a dilution of 1:20) from NEB to TAMRA-labelled P1^∘- and P1*^∘ peptides (each 5 nM) was measured by fluorescence polarization.

NEB antibody #9251 [2] = assay: FP controls conjugate/high/low (Example 7); format: binding, rabbit; details: 0 h
Procedure: The following reagents have been used (the compositions of the buffers and specifications of the reagents are explained in more detail later on): Hepes buffer, MgCl2 10 mM, ATP 20 μM, P1^∘ peptide at 100 μM, NEB antibody # 9251 1:20 dilution, P1*^∘-TAMRA 5 nM, Pluronic 0.1%, MKK7 at 0, 0.005, 0.02, 0.08, 0.2, 0.5 and 2 μM.
After addition of MKK7, the enzyme reactions were performed in Nunc chambers at RT. The samples were continuously measured at different time points by Fluorescence polarization.
(§1) Bis-phosphorylated peptide P1*^∘ can be used as competitor, resulting in free labelled ligand called “low” or “negative control”. This can be seen in the following table 1.

NEB antibody #9251 [3] = assay: FP controls conjugate/high/low (Example 8); format: binding, rabbit; details: 0 h
Procedure: The following reagents have been used (explanations later on): Hepes buffer, MgCl2 (10 mM), ATP (20 μM), P1^∘ peptide (100 μM), polyclonal antibody NEB #9251 (1:20), P1*^∘-TAMRA (5 nM), Pluronic (0.1%), BSA (0.01%), MKK7 at (0.04, 0.08 and 0.2 μM), EDTA (10 mM) (all final conc.).
The enzyme reactions were performed in Eppendorf reaction tubes at RT. Aliquots of 20 μl were withdrawn from the reactions at different time points and mixed with 10 μl STOP solution. The stopped reactions were incubated at RT for at least 30 min and measured by Fluorescence Polarization.
as §1

[4] = biological target: Anti active SAPK1/JNK-specific polyclonal antibody, New England Biolabs NEB #9251; assay: competition with TAMRA-P1*° (5 nM) for the antibody, competitor up to 1 µM (FIG. 3)
[5] = biological target: Anti active SAPK1/JNK-specific polyclonal antibody, New England Biolabs NEB #9251; assay: fluorescence polarization, 200 nM P1*° competing with TAMRA-P1*° (5 nM) for antibody 1:20, 0 h
[6] = biological target: Anti active SAPK1/JNK-specific polyclonal antibody, New England Biolabs NEB #9251; assay: fluorescence correlation spectroscopy, competition with TAMRA-P1*° (5 nM) for the NEB antibody (1:20)
[7] = biological target: Anti active SAPK1/JNK-specific polyclonal antibody, New England Biolabs NEB #9251; assay: fluorescence polarization, competition with TAMRA-P1*° (5 nM) for NEB #9251 (1:20) in presence of 100 µM P1° substrate peptide, 20 µM ATP, 10 mM MgCl2

What does the source list for “5-TAMRA-AEEA-Lys-Phe-Met-Met-pThr-Pro-pTyr-Val-Val-Thr-Arg-NH2 ({5‑TAMRA-AEEA}-KFMM[pT]P[pY]VVTR-NH2; SMILES CSCC[C@H](NC(=O)[C@H](Cc1ccccc1)NC(=O)[C@H](CCCCN)NC(=O)COCCOCCNC(=O)c1ccc(-c2c3ccc(N(C)C)cc3[o+]c3cc(N(C)C)ccc23)c(C(=O)[O-])c1)C(=O)N[C@@H](CCSC)C(=O)N[C@H](C(=O)N1CCC[C@H]1C(=O)N[C@@H](Cc1ccc(OP(=O)(O)O)cc1)C(=O)N[C@H](C(=O)N[C@H](C(=O)N[C@H](C(=O)N[C@@H](CCCNC(=N)N)C(N)=O)[C@@H](C)O)C(C)C)C(C)C)[C@@H](C)OP(=O)(O)O) [P1*^∘-TAMRA]”?
Kd ([1]; antibody 1:20, peptide 5 nM, read-out: KD, affinity of polyclonal phospho-JNK antibody for peptide): 2.6 nM; Fluorescence Polarization (NEB antibody #9251 [2]; Conjugate alone): 39.7 mP; Fluorescence Polarization (NEB antibody #9251 [2]; High: + NEB ab (1:20)): 139.1 mP; Fluorescence Polarization (NEB antibody #9251 [3]; Conjugate alone): 33.2 mP; Fluorescence Polarization (NEB antibody #9251 [3]; High: + NEB ab (1:20)): 145.7 mP

“TAMRA-labelled P1^∘-peptide: TAMRA-labelled mono-phosphorylated P1° peptide, control for antibody binding (KFMMTP[pY]VVTR-NH2; not fully specified (residue 5, N-terminus); also: TAMRA label, site not given here)” was tested. Which “binding of the polyclonal JNK antibody” value ([1]; control) did it give?
Its value is “no binding”.

B1: P1° peptide, H-Lys-Phe-Met-Met-Thr-Pro-pTyr-Val-Val-Thr-Arg-NH2 (peptide)
peptide: H-KFMMTP[pY]VVTR-NH2
SMILES: CSCC[C@H](NC(=O)[C@H](Cc1ccccc1)NC(=O)[C@@H](N)CCCCN)C(=O)N[C@@H](CCSC)C(=O)N[C@H](C(=O)N1CCC[C@H]1C(=O)N[C@@H](Cc1ccc(OP(=O)(O)O)cc1)C(=O)N[C@H](C(=O)N[C@H](C(=O)N[C@H](C(=O)N[C@@H](CCCNC(=N)N)C(N)=O)[C@@H](C)O)C(C)C)C(C)C)[C@@H](C)O
B1 was tested. Which percent of the bound ligand displaced [4] did it give?
The percent of the bound ligand displaced was less than 50%.

B2: P1* peptide, H-Lys-Phe-Met-Met-pThr-Pro-Tyr-Val-Val-Thr-Arg-NH2 (peptide)
peptide: H-KFMM[pT]PYVVTR-NH2
SMILES: CSCC[C@H](NC(=O)[C@H](Cc1ccccc1)NC(=O)[C@@H](N)CCCCN)C(=O)N[C@@H](CCSC)C(=O)N[C@H](C(=O)N1CCC[C@H]1C(=O)N[C@@H](Cc1ccc(O)cc1)C(=O)N[C@H](C(=O)N[C@H](C(=O)N[C@H](C(=O)N[C@@H](CCCNC(=N)N)C(N)=O)[C@@H](C)O)C(C)C)C(C)C)[C@@H](C)OP(=O)(O)O
With B2 as the molecule, how does the percent of the bound ligand displaced [4] read?
The percent of the bound ligand displaced was less than 50%.

B3: P1*° peptide, H-Lys-Phe-Met-Met-pThr-Pro-pTyr-Val-Val-Thr-Arg-NH2 (peptide)
peptide: H-KFMM[pT]P[pY]VVTR-NH2
SMILES: CSCC[C@H](NC(=O)[C@H](Cc1ccccc1)NC(=O)[C@@H](N)CCCCN)C(=O)N[C@@H](CCSC)C(=O)N[C@H](C(=O)N1CCC[C@H]1C(=O)N[C@@H](Cc1ccc(OP(=O)(O)O)cc1)C(=O)N[C@H](C(=O)N[C@H](C(=O)N[C@H](C(=O)N[C@@H](CCCNC(=N)N)C(N)=O)[C@@H](C)O)C(C)C)C(C)C)[C@@H](C)OP(=O)(O)O
Which fluorescence polarization [5] does the source give for B3 here?
Its fluorescence polarization is 84.5 mP.

What about the IC50 [6] of the same molecule?
The IC50 was 5 nM.

And the IC50 [7]?
Its IC50 is 35.1 nM.
